In assay [1] the target is T1, Acyl-CoA dehydrogenase family member 11 (Homo sapiens, UniProt Q709F0).
T1 sequence (Q709F0 whole entry): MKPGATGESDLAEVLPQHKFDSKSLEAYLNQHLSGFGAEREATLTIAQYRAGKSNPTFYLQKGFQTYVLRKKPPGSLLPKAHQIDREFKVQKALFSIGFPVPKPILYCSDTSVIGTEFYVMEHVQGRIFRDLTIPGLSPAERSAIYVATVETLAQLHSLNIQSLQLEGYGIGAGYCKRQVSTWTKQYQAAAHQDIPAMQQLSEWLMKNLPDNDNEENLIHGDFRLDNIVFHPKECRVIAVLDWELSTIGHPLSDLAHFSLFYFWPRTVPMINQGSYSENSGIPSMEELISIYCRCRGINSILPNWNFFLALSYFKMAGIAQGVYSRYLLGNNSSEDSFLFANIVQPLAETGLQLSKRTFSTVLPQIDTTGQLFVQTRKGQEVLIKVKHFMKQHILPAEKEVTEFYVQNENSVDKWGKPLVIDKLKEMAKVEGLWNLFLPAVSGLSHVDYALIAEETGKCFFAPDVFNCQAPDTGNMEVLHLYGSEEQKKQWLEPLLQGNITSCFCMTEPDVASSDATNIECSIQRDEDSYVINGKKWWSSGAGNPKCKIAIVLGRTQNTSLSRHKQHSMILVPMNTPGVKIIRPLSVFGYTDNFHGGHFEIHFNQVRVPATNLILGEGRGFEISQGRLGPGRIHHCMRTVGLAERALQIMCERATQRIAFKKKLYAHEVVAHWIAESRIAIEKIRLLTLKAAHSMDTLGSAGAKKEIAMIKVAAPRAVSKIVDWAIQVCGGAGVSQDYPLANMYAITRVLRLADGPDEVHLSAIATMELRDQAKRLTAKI

The target of assay [2] is Casein kinase I isoform delta (Homo sapiens, UniProt P48730).
Chain of Casein kinase I isoform delta (P48730 whole entry, the tested form may be a part, canonical isoform): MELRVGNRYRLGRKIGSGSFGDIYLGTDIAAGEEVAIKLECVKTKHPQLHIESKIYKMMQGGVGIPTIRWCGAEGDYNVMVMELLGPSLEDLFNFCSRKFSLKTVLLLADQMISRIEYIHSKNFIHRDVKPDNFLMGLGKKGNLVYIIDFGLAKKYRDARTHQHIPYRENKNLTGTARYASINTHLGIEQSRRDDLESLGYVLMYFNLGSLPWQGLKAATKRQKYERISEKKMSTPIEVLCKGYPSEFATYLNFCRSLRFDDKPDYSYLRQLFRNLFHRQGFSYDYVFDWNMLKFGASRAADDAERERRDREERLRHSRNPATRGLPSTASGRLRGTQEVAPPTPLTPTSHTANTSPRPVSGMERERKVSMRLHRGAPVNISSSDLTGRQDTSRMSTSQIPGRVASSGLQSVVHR
The target in assay [3] is LIM domain kinase 2 (Homo sapiens, UniProt P53671).
Chain of LIM domain kinase 2 (P53671 whole entry, the tested form may be a part): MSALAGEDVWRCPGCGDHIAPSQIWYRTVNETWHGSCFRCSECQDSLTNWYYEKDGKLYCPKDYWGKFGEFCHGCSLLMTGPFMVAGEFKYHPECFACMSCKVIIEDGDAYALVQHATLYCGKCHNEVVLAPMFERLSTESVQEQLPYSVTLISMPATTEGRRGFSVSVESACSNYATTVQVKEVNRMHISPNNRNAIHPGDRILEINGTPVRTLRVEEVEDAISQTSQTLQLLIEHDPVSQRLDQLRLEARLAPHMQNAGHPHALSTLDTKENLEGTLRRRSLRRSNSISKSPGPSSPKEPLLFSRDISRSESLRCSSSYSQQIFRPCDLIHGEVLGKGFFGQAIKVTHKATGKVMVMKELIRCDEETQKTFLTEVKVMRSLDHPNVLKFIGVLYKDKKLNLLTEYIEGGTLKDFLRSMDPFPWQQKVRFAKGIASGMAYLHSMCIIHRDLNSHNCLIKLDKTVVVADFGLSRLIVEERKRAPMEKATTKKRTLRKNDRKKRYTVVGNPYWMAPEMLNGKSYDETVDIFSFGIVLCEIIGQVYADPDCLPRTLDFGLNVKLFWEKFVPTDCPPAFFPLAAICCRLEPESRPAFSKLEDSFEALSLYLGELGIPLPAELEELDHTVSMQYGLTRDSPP
Assay [4] deals with MAP/microtubule affinity-regulating kinase 3 (Homo sapiens, UniProt P27448).
Chain of MAP/microtubule affinity-regulating kinase 3 (P27448 whole entry): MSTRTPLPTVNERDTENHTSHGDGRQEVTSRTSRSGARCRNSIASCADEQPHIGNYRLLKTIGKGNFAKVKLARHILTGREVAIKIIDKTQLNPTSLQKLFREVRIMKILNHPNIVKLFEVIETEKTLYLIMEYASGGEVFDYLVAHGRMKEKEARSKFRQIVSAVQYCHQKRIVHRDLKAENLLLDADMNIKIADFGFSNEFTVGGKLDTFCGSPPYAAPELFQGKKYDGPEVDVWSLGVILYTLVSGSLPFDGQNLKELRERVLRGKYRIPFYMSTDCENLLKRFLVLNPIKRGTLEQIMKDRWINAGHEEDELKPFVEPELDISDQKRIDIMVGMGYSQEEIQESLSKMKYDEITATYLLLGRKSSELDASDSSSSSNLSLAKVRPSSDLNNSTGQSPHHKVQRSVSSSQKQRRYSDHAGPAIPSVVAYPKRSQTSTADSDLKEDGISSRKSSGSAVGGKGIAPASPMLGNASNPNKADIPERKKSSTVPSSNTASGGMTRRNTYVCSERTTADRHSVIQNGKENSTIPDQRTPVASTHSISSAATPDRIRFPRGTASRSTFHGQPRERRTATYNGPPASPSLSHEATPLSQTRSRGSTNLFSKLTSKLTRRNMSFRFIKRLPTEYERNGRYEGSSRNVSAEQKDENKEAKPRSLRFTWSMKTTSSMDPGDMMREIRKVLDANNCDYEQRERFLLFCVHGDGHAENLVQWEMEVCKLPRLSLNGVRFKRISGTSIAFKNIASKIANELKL
In assay [5] the target is Serine/threonine-protein kinase PAK 4 (Homo sapiens, UniProt O96013).
Chain of Serine/threonine-protein kinase PAK 4 (O96013 whole entry): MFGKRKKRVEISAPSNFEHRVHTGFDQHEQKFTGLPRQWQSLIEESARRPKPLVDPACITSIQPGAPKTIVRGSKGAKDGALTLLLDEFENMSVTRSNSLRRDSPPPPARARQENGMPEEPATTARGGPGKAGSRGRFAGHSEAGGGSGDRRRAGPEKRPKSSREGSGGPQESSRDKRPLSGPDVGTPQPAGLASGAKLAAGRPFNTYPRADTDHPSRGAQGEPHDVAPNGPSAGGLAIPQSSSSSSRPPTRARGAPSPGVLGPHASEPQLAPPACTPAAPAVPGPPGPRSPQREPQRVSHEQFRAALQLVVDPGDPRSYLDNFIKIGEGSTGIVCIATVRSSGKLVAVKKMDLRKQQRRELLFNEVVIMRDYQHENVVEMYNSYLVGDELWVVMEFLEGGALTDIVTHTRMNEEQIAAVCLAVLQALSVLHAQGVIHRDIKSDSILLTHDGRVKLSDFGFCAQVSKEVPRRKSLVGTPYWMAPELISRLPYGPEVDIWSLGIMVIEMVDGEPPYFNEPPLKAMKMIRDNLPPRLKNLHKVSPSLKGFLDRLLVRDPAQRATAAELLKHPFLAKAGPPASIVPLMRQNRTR
The target of assay [6] is Focal adhesion kinase 1 (Homo sapiens, UniProt Q05397).
Chain of Focal adhesion kinase 1 (Q05397 whole entry): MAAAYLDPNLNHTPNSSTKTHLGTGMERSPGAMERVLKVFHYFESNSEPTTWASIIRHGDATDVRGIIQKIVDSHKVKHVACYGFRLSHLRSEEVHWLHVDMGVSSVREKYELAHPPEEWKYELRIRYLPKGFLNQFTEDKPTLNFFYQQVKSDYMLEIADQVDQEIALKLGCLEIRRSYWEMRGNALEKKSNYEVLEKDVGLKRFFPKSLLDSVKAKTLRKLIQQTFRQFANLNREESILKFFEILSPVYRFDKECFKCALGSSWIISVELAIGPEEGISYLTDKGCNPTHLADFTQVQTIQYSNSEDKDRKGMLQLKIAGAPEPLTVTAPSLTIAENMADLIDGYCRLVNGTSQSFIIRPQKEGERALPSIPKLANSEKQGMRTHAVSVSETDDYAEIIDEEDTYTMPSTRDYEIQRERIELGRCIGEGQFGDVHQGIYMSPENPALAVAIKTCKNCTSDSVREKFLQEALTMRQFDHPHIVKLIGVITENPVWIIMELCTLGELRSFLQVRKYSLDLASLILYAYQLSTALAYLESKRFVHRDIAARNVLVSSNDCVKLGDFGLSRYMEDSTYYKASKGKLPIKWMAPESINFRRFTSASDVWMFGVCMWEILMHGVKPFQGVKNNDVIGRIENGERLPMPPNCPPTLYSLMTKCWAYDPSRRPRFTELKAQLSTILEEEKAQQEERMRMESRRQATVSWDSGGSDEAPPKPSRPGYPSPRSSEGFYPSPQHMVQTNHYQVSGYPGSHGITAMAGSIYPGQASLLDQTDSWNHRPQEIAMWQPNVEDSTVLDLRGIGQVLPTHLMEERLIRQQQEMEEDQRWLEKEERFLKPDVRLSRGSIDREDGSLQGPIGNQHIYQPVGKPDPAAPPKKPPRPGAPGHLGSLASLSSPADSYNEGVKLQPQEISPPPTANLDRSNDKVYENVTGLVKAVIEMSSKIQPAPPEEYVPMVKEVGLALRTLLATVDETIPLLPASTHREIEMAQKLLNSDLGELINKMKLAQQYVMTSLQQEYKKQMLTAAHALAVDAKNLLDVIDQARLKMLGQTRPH
Assay [7] has as its target T2, Glycogen phosphorylase, brain form (Homo sapiens, UniProt P11216).
T2 sequence (P11216 whole entry): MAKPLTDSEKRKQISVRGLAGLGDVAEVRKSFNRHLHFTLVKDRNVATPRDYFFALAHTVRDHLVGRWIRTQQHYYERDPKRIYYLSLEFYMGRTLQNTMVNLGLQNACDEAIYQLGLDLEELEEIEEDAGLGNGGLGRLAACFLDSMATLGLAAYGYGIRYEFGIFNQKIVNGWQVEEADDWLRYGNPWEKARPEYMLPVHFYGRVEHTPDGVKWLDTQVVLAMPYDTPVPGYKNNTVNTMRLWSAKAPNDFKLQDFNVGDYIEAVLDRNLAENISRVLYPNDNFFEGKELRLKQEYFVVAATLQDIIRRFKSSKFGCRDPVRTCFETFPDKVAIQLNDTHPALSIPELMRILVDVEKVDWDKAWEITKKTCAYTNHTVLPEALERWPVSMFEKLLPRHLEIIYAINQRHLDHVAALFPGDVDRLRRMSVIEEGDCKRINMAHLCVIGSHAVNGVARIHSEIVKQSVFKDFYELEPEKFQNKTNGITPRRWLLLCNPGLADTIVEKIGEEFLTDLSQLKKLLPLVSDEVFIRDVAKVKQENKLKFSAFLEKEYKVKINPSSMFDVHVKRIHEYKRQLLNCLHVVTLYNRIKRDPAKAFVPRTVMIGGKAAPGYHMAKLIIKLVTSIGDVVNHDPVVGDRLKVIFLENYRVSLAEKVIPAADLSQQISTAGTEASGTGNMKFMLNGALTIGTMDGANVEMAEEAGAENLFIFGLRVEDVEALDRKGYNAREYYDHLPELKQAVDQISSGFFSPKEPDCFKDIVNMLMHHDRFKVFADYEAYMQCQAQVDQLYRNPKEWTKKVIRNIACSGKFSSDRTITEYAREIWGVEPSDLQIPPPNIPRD

Assay [8] deals with Ribosomal protein S6 kinase alpha-5 (Homo sapiens, UniProt O75582).
Chain of Ribosomal protein S6 kinase alpha-5 (O75582 whole entry): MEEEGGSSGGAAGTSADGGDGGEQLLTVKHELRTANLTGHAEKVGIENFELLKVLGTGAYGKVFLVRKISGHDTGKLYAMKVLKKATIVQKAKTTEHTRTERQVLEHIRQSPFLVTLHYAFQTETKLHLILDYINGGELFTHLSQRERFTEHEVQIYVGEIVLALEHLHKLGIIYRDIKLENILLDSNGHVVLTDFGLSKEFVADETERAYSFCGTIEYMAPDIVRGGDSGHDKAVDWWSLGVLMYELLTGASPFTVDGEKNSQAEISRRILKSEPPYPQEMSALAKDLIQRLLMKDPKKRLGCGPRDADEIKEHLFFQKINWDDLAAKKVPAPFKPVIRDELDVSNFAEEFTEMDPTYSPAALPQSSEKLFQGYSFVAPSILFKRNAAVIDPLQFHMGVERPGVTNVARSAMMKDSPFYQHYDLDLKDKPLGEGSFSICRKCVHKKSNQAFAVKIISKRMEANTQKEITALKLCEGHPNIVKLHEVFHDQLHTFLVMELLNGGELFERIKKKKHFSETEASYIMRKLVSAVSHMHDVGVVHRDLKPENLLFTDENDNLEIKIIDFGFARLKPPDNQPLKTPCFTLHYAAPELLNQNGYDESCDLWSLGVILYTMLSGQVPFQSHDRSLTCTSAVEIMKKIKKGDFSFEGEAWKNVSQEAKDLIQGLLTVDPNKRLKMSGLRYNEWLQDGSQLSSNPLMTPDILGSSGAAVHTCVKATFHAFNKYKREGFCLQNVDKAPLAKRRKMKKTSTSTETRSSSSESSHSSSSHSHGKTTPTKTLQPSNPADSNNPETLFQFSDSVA
Assay [9] addresses T3, STE20-related kinase adapter protein alpha (Homo sapiens, UniProt Q7RTN6).
T3 sequence (Q7RTN6 whole entry): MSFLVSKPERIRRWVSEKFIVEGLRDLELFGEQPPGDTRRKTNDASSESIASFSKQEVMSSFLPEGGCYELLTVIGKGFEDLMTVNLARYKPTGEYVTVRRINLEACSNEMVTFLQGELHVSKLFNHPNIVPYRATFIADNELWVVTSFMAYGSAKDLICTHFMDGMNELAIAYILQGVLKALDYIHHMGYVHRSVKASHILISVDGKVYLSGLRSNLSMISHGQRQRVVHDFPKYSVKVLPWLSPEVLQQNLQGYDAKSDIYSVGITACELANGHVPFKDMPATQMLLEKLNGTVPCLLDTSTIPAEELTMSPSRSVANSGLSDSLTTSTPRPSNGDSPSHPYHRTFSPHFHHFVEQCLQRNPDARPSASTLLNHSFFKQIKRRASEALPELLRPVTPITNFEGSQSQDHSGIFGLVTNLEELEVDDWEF

Assay [10] concerns the target T4, Tyrosine--tRNA ligase, cytoplasmic (Homo sapiens, UniProt P54577).
T4 sequence (P54577 whole entry): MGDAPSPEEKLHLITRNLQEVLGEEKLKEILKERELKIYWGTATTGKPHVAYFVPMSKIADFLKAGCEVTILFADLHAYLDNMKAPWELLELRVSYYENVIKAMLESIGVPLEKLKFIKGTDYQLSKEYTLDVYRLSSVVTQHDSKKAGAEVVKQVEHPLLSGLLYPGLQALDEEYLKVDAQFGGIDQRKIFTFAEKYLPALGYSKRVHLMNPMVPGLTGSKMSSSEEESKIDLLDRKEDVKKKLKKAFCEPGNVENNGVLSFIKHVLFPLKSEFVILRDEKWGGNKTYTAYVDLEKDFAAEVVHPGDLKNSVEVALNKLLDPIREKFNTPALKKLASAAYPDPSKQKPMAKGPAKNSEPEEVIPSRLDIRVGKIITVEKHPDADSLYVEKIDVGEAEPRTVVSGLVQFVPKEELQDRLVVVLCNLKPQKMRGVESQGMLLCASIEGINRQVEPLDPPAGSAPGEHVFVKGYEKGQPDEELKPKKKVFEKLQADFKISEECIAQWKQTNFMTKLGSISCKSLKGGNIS

The target of assay [11] is cAMP-dependent protein kinase type II-alpha regulatory subunit (Homo sapiens, UniProt P13861).
Chain of cAMP-dependent protein kinase type II-alpha regulatory subunit (P13861 whole entry): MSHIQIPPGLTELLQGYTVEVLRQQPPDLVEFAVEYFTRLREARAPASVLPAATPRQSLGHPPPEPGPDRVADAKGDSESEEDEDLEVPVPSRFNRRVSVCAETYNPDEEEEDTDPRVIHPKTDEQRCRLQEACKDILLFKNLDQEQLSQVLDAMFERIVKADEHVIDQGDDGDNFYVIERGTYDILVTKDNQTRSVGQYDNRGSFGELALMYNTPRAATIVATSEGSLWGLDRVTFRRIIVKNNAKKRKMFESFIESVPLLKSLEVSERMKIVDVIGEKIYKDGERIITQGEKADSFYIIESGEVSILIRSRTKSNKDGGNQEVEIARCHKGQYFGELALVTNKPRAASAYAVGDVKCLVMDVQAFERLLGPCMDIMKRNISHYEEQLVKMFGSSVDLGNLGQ

Each structure is given as a SMILES string. Activity calls are given as the source filed them.
Also: in the data inactive means no Kd found up to 30 µM.

As for `Cc1ccc(S(=O)(=O)Nc2nc3ccccc3nc2Nc2ccc3nsnc3c2)cc1`, the Kd in [1], in assay [2], in assay [3], in assay [4], in [5] and in assay [6] was > 30 µM (inactive) each time. The Kd in assay [7], in [8], in assay [9] and in assay [10] was > 30 µM (inactive) each time.

With `Cn1cc(-c2ccc(F)c(C(F)(F)F)c2)nc1C1CCN(c2ncnc3[nH]ncc23)CC1` [LY-2584702], the Kd in assay [1], in assay [2], in [3], in assay [4], in [5] and in assay [6] was > 30 µM (inactive) in each case. For the same molecule, the Kd in assay [7], in [8], in assay [9] and in [10] was > 30 µM (inactive) each time.

Take `OCCn1cc(-c2cnc3nnn(Cc4ccc5ncccc5c4)c3n2)cn1` [PF-04217903]: the Kd in assay [1], in assay [2], in [3], in assay [4], in assay [11] and in assay [7] was > 30 µM (inactive) each time. The Kd in [8], in [9] and in [10] was > 30 µM (inactive) in each case.

As to `Cc1cc(Nc2cc(N3CCN(C)CC3)nc(/C=C/c3ccccc3)n2)n[nH]1` [ENMD-2076], the Kd in assay [1], in assay [11], in [7], in [8], in assay [9] and in assay [10] was > 30 µM (inactive) throughout.

In the case of `C[C@@H](Nc1cc(F)cc(F)c1)c1cc(C(=O)N(C)C)cc2c(=O)cc(N3CCOCC3)oc12` [AZD-8186], the Kd in assay [1], in [2], in [3], in [4], in assay [5] and in assay [6] was > 30 µM (inactive) in each case. Further, the Kd in [7], in assay [8], in [9] and in [10] was > 30 µM (inactive) throughout.

Turning to `Nc1nc(N)c2nc(-c3cccc(O)c3)c(-c3cccc(O)c3)nc2n1` [TG100-115], the Kd in assay [1], in assay [2], in [11], in [7], in [9] and in [10] was > 30 µM (inactive) each time.

As for `CN1CCN(c2ccc3nc(-c4c(N)c5c(F)cccc5[nH]c4=O)[nH]c3c2)CC1` [DOVITINIB], the Kd in assay [1], in [11], in assay [7], in assay [9] and in assay [10] was > 30 µM (inactive) throughout.

`O=C(Nc1cccc(Cl)c1)Nc1ncc(CCNc2ncnc3ccsc23)s1` [SNS-314]: the Kd in assay [1], in [3], in [11], in [7], in [8] and in [9] was > 30 µM (inactive) each time. Further, the Kd in assay [10] was > 30 µM (inactive).

As for `CCc1cnn2c(NCc3ccc[n+]([O-])c3)cc(N3CCCC[C@H]3CCO)nc12` [DINACICLIB], the Kd in assay [1], in [2], in assay [3], in [4], in assay [11] and in assay [7] was > 30 µM (inactive) in each case. The Kd in [8], in assay [9] and in [10] was > 30 µM (inactive) throughout.

On to `CNC(=O)c1ccc(C)c(-n2c(C)cc(OCc3ccc(F)cc3F)c(Br)c2=O)c1` [PH-797804], for which the Kd in [1], in assay [2], in [3], in assay [4], in assay [5] and in assay [6] was > 30 µM (inactive) in each case. In addition, the Kd is > 30 µM (inactive) in [7], > 30 µM (inactive) in [8], 0.672 µM in assay [9] and > 30 µM (inactive) in [10].

For the molecule `Cc1nc(N)sc1-c1ccnc(Nc2ccc(N3CCOCC3)cc2)n1` [CYC-116], the Kd was > 30 µM (inactive) in assay [1]; 2.55 µM (active) in assay [3]; 13 µM (active) in assay [6]; > 30 µM (inactive) in assay [7]; > 30 µM (inactive) in assay [9]; > 30 µM (inactive) in [10].

With `Cc1cn(-c2cc(NC(=O)c3ccc(C)c(Nc4nccc(-c5cccnc5)n4)c3)cc(C(F)(F)F)c2)cn1` [NILOTINIB], the Kd in assay [1], in assay [11], in assay [9] and in [10] was > 30 µM (inactive) in each case.

By Kd is commonly meant the equilibrium constant for the complex coming apart.

The record behind these values is ChEMBL document CHEMBL3991601, “The target landscape of clinical kinase drugs” (Science, 2017).
